Results published in patent publication US20100267637A1, “TREATMENT OF MELANOMA WITH ALPHA THYMOSIN PEPTIDES IN COMBINATION WITH A KINASE INHIBITOR” (SciClone Pharmaceuticals, Inc., priority 2007, published 2010).

System: murine B16 melanoma cells
Experiment: Anti-tumor effect: tumor size / tumor volume in mice bearing subcutaneous B16 melanoma
Type: in vivo, C57BL/6 mice
Design: key to Tumor measurement L (length) / Tumor measurement W (width): The sign “—” indicates that tumor does not reach a measurable size
Conditions: for Tumor Volume (cm^3) (Mean ± SD): group mean; for PI (TV), percent inhibition of tumor volume: vs vehicle; for Tumor volumes on Day 15: Length × Width × Width/2
Procedure: The toxic effects of the dosing regimens were also monitored. […] Meanwhile 9H10 was given in two groups via i.p. on Day 3, 6 and 9. […] Tumor volume and body weight were measured every three days, and tumor weights were measured on Day 16 at the end of the study.
As per aseptic tissue culture procedures, one vial of B16 melanoma cells was removed from the liquid nitrogen stock, and placed into a 37° C. water bath. Gentle swirling was conducted until the content of the vial was thawed. Using tissue culture/sterile procedures, the cells were immediately centrifuged with a TD5A-WS centrifuge at 1000 rpm, 20-25° C., 5 min. After centrifugation, the cells were suspended in 0.1 to 0.5 mL normal saline (NS) and subcutaneously injected into 10 mice (0.1 mL/mouse, about 1×10^6 cells). After 7-10 days, when the tumor diameter was approximately 1 cm, the animals were euthanized with CO2 overdose and the tumors excised. The procedure was repeated with 20 mice to generate a sufficient number of B16 melanoma cells with adequate transplantability.
On the day of tumor implantation, approximately 1×10^6 cells in 0.1 mL were subcutaneously injected on the right axillary area of each mouse. The day of tumor implantation was defined as Day 0.
On Day 3, the animals were randomly assigned into nine different weight-matched and tumor-size-matched groups. Dosing was started on Day 3 using the regimen according to Table 2.
From Day 1 to Day 15, mortality and moribundity were checked twice daily, the body weights were recorded once every 3 days, and tumors were measured using a caliper once every 3 days. At the end of the study (Day 16), the animals were euthanized by CO2 asphyxiation, and the tumors were excised and weighed.
Based on the tumor size, the tumor volume (TV) was calculated with the formula: [TV=(Length×Width×Width)/2]. And the percent inhibition (PI) of TV (PITV) was calculated according to the equation below:
PITV(%)=(TV vehicle−TVdrug treated)/TV vehicle×100
Inter-group comparison was performed in terms of tumor volume, tumor weight and body weight, using a student's t test. P values of less than 0.05 were considered to be statistically significant.

`CNC(=O)c1cc(Oc2ccc(NC(=O)Nc3ccc(Cl)c(C(F)(F)F)c3)cc2)ccn1` [Sorafenib] was tested, and the “Tumor measurement L (length)” value (Day 3, animal F1) was “—”, the “Tumor measurement W (width)” value (Day 3, animal F1) was “—” and the Tumor volume (Day 3, animal F1) was 0.0000 cm^3. For the same molecule, the “Tumor measurement L (length)” value (Day 3, animal F2) was 0.20 cm, the “Tumor measurement W (width)” value (Day 3, animal F2) was 0.20 cm and the Tumor volume (Day 3, animal F2) was 0.0040 cm^3. For the same molecule, the “Tumor measurement L (length)” value (Day 3, animal F3) was 0.10 cm, the “Tumor measurement W (width)” value (Day 3, animal F3) was 0.10 cm and the Tumor volume (Day 3, animal F3) was 0.0005 cm^3. For the same molecule, the “Tumor measurement L (length)” value (Day 3, animal F4) was “—”, the “Tumor measurement W (width)” value (Day 3, animal F4) was “—” and the Tumor volume (Day 3, animal F4) was 0.0000 cm^3. The “Tumor measurement L (length)” value (Day 3, animal F5) was “—”, the “Tumor measurement W (width)” value (Day 3, animal F5) was “—” and the Tumor volume (Day 3, animal F5) was 0.0000 cm^3. The “Tumor measurement L (length)” value (Day 3, animal M1) was 0.20 cm, the “Tumor measurement W (width)” value (Day 3, animal M1) was 0.20 cm and the Tumor volume (Day 3, animal M1) was 0.0040 cm^3. For the same molecule, the “Tumor measurement L (length)” value (Day 3, animal M2) was “—”, the “Tumor measurement W (width)” value (Day 3, animal M2) was “—” and the Tumor volume (Day 3, animal M2) was 0.0000 cm^3. For the same molecule, the “Tumor measurement L (length)” value (Day 3, animal M3) was “—”, the “Tumor measurement W (width)” value (Day 3, animal M3) was “—” and the Tumor volume (Day 3, animal M3) was 0.0000 cm^3. For the same molecule, the “Tumor measurement L (length)” value (Day 3, animal M4) was “—”, the “Tumor measurement W (width)” value (Day 3, animal M4) was “—” and the Tumor volume (Day 3, animal M4) was 0.0000 cm^3. For the same molecule, the “Tumor measurement L (length)” value (Day 3, animal M5) was “—”, the “Tumor measurement W (width)” value (Day 3, animal M5) was “—” and the Tumor volume (Day 3, animal M5) was 0.0000 cm^3. For the same molecule, the “Tumor Volume (cm^3) (Mean ± SD)” value (Day 3) was 0.001 ± 0.0017 cm^3, the “PI (TV), percent inhibition of tumor volume” value (“PI (TV), percent inhibition” below) (Day 3) was −750.00% and the “Tumor measurement L (length)” value (Day 6, animal F1) was “—”. For the same molecule, the “Tumor measurement W (width)” value (Day 6, animal F1) was “—”, the Tumor volume (Day 6, animal F1) was 0.0000 cm^3 and the “Tumor measurement L (length)” value (Day 6, animal F2) was “—”. The “Tumor measurement W (width)” value (Day 6, animal F2) was “—”, the Tumor volume (Day 6, animal F2) was 0.0000 cm^3 and the “Tumor measurement L (length)” value (Day 6, animal F3) was “—”. For the same molecule, the “Tumor measurement W (width)” value (Day 6, animal F3) was “—”, the Tumor volume (Day 6, animal F3) was 0.0000 cm^3 and the “Tumor measurement L (length)” value (Day 6, animal F4) was “—”. The “Tumor measurement W (width)” value (Day 6, animal F4) was “—”, the Tumor volume (Day 6, animal F4) was 0.0000 cm^3 and the “Tumor measurement L (length)” value (Day 6, animal F5) was “—”. The “Tumor measurement W (width)” value (Day 6, animal F5) was “—”, the Tumor volume (Day 6, animal F5) was 0.0000 cm^3 and the “Tumor measurement L (length)” value (Day 6, animal M1) was “—”. For the same molecule, the “Tumor measurement W (width)” value (Day 6, animal M1) was “—”, the Tumor volume (Day 6, animal M1) was 0.0000 cm^3 and the “Tumor measurement L (length)” value (Day 6, animal M2) was “—”. For the same molecule, the “Tumor measurement W (width)” value (Day 6, animal M2) was “—”, the Tumor volume (Day 6, animal M2) was 0.0000 cm^3 and the “Tumor measurement L (length)” value (Day 6, animal M3) was “—”. For the same molecule, the “Tumor measurement W (width)” value (Day 6, animal M3) was “—”, the Tumor volume (Day 6, animal M3) was 0.0000 cm^3 and the “Tumor measurement L (length)” value (Day 6, animal M4) was “—”. For the same molecule, the “Tumor measurement W (width)” value (Day 6, animal M4) was “—”, the Tumor volume (Day 6, animal M4) was 0.0000 cm^3 and the “Tumor measurement L (length)” value (Day 6, animal M5) was “—”. For the same molecule, the “Tumor measurement W (width)” value (Day 6, animal M5) was “—”, the Tumor volume (Day 6, animal M5) was 0.0000 cm^3 and the “Tumor Volume (cm^3) (Mean ± SD)” value (Day 6) was 0.000 ± 0.0000 cm^3. The “PI (TV), percent inhibition” value (Day 6) was 100.00%, the Tumor volume (Day 9, animal F1) was 0.0000 cm^3 and the Tumor volume (Day 9, animal F2) was 0.0000 cm^3. For the same molecule, the Tumor volume (Day 9, animal F3) was 0.0000 cm^3, the Tumor volume (Day 9, animal F4) was 0.0000 cm^3 and the “Tumor measurement L (length)” value (Day 9, animal F5) was 0.10 cm. For the same molecule, the “Tumor measurement W (width)” value (Day 9, animal F5) was 0.10 cm, the Tumor volume (Day 9, animal F5) was 0.0005 cm^3 and the Tumor volume (Day 9, animal M1) was 0.0000 cm^3. It also gave a Tumor volume (Day 9, animal M2) of 0.0000 cm^3, a Tumor volume (Day 9, animal M3) of 0.0000 cm^3 and a Tumor volume (Day 9, animal M4) of 0.0000 cm^3. For the same molecule, the “Tumor measurement L (length)” value (Day 9, animal M5) was 0.10 cm, the “Tumor measurement W (width)” value (Day 9, animal M5) was 0.10 cm and the Tumor volume (Day 9, animal M5) was 0.0005 cm^3. For the same molecule, the “Tumor Volume (cm^3) (Mean ± SD)” value (Day 9) was 0.000 ± 0.0002 cm^3, the “mean tumor volume compared with Group 1 (vehicle), statistics” value (Day 9, p<0.05) was “statistically significantly smaller than Group 1” and the “PI (TV), percent inhibition” value (Day 9) was 99.52%. The “Tumor measurements on Day 12, L” value (Day 12, animal F1) was 0.30 cm, the “Tumor measurements on Day 12, W” value (Day 12, animal F1) was 0.30 cm and the Tumor volume (Day 12, animal F2) was 0.0000 cm^3. The “Tumor measurements on Day 12, L” value (Day 12, animal F3) was 0.30 cm, the “Tumor measurements on Day 12, W” value (Day 12, animal F3) was 0.30 cm and the “Tumor measurements on Day 12, L” value (Day 12, animal F4) was 0.30 cm. For the same molecule, the “Tumor measurements on Day 12, W” value (Day 12, animal F4) was 0.30 cm, the “Tumor measurements on Day 12, L” value (Day 12, animal F5) was 0.30 cm and the “Tumor measurements on Day 12, W” value (Day 12, animal F5) was 0.30 cm. The Tumor volume (Day 12, animal M1) was 0.0000 cm^3, the “Tumor measurements on Day 12, L” value (Day 12, animal M2) was 0.30 cm and the “Tumor measurements on Day 12, W” value (Day 12, animal M2) was 0.30 cm. The Tumor volume (Day 12, animal M3) was 0.0000 cm^3, the Tumor volume (Day 12, animal M4) was 0.0000 cm^3 and the “Tumor measurements on Day 12, L” value (Day 12, animal M5) was 0.30 cm. The “Tumor measurements on Day 12, W” value (Day 12, animal M5) was 0.30 cm, the “Tumor Volume (cm^3) (Mean ± SD)” value (Day 12) was 0.008 ± 0.0070 cm^3 and the “PI (TV), percent inhibition” value (Day 12) was 97.64%. The “Tumor measurements on Day 15, L” value (Day 15, animal F1) was 0.60 cm, the “Tumor measurements on Day 15, W” value (Day 15, animal F1) was 0.60 cm and the “Tumor measurements on Day 15, L” value (Day 15, animal F2) was 0.40 cm. The “Tumor volumes on Day 15” value (Day 15, animal F2) was 0.0320 cm^3, the “Tumor measurements on Day 15, W” value (Day 15, animal F2) was 0.40 cm and the “Tumor measurements on Day 15, L” value (Day 15, animal F3) was 0.60 cm. For the same molecule, the “Tumor measurements on Day 15, W” value (Day 15, animal F3) was 0.60 cm, the “Tumor measurements on Day 15, L” value (Day 15, animal F4) was 0.70 cm and the “Tumor volumes on Day 15” value (Day 15, animal F4) was 0.0875 cm^3. For the same molecule, the “Tumor measurements on Day 15, W” value (Day 15, animal F4) was 0.50 cm, the “Tumor measurements on Day 15, L” value (Day 15, animal F5) was 0.50 cm and the “Tumor volumes on Day 15” value (Day 15, animal F5) was 0.0625 cm^3. For the same molecule, the “Tumor measurements on Day 15, W” value (Day 15, animal F5) was 0.50 cm, the “Tumor measurements on Day 15, L” value (Day 15, animal M1) was 0.20 cm and the “Tumor volumes on Day 15” value (Day 15, animal M1) was 0.0040 cm^3. For the same molecule, the “Tumor measurements on Day 15, W” value (Day 15, animal M1) was 0.20 cm, the “Tumor measurements on Day 15, L” value (Day 15, animal M2) was 0.50 cm and the “Tumor volumes on Day 15” value (Day 15, animal M2) was 0.0625 cm^3. For the same molecule, the “Tumor measurements on Day 15, W” value (Day 15, animal M2) was 0.50 cm, the “Tumor measurements on Day 15, L” value (Day 15, animal M3) was 0.20 cm and the “Tumor volumes on Day 15” value (Day 15, animal M3) was 0.0040 cm^3. The “Tumor measurements on Day 15, W” value (Day 15, animal M3) was 0.20 cm, the “Tumor measurements on Day 15, L” value (Day 15, animal M4) was 0.30 cm and the “Tumor measurements on Day 15, W” value (Day 15, animal M4) was 0.30 cm. For the same molecule, the “Tumor measurements on Day 15, L” value (Day 15, animal M5) was 0.50 cm, the “Tumor volumes on Day 15” value (Day 15, animal M5) was 0.0625 cm^3 and the “Tumor measurements on Day 15, W” value (Day 15, animal M5) was 0.50 cm. The “Tumor Volume (cm^3) (Mean ± SD)” value (Day 15) was 0.054 ± 0.0399 cm^3, the “PI (TV), percent inhibition” value (Day 15) was 92.56% and the “effect on tumor growth in words” value (daily dosing Days 3-15) was “effective towards the tumor inhibition”.
